Reference: PubChem BioAssay (NCI)
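Growth conditions: 96-well plates. Treatment: test compound, 48 hours, 5 concentrations. Analysis: linear interpolation between bracketing concentrations; unreached endpoints set to highest concentration. The concentration for 50% growth inhibition is given as GI50. The concentration for full growth arrest is given as TGI.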

How the values were obtained:
Assay in all cases: NCI tumour cell line growth inhibition, 48 h
[1] = system: 786-0 renal
[2] = system: A498 renal
[3] = system: A549 NSCLC
[4] = system: ACHN renal
[5] = system: BT-549 breast
[6] = system: CAKI-1 renal
[7] = system: CCRF-CEM leukemia
[8] = system: COLO 205 colon
[9] = system: DU-145 prostate
[10] = system: EKVX NSCLC
[11] = system: HCC-2998 colon
[12] = system: HCT-116 colon
[13] = system: HCT-15 colon
[14] = system: HL-60(TB) leukemia
[15] = system: HOP-62 NSCLC
[16] = system: HOP-92 NSCLC
[17] = system: HS 578T breast
[18] = system: IGROV1 ovarian
[19] = system: K-562 leukemia
[20] = system: KM12 colon
[21] = system: LOX IMVI melanoma
[22] = system: M14 melanoma
[23] = system: MALME-3M melanoma
[24] = system: MCF7 breast
[25] = system: MDA-MB-231 breast
[26] = system: MDA-MB-435
[27] = system: MOLT-4 leukemia
[28] = system: NCI-H226 lung
[29] = system: NCI-H23 lung
[30] = system: NCI-H460 lung
[31] = system: NCI-H522 lung
[32] = system: NCI/ADR-RES ovarian
[33] = system: OVCAR-3 ovarian
[34] = system: OVCAR-4 ovarian
[35] = system: OVCAR-5 ovarian
[36] = system: OVCAR-8 ovarian
[37] = system: PC-3 prostate
[38] = system: RPMI-8226 leukemia
[39] = system: RXF 393 renal
[40] = system: SF-268 CNS
[41] = system: SF-295 CNS
[42] = system: SF-539 CNS
[43] = system: SK-MEL-2 melanoma
[44] = system: SK-MEL-28 melanoma
[45] = system: SK-MEL-5 melanoma
[46] = system: SK-OV-3 ovarian
[47] = system: SN12C renal
[48] = system: SNB-19 CNS
[49] = system: SNB-75 CNS
[50] = system: SR leukemia
[51] = system: SW-620 colon
[52] = system: T-47D breast
[53] = system: TK-10 renal
[54] = system: U251 CNS
[55] = system: UACC-257 melanoma
[56] = system: UACC-62 melanoma
[57] = system: UO-31 renal

## Cn1cc(-c2nc(-c3c[nH]c4ncccc34)cs2)c2ccccc21
[1]
  GI50: 91.7 µM
  TGI: > 100 µM
[2]
  GI50: 34.5 µM
  TGI: > 100 µM
[3]
  GI50: 26.6 µM
  TGI: > 100 µM
[4]
  GI50: 31.7 µM
  TGI: > 100 µM
[5]
  GI50: 23.7 µM
  TGI: > 100 µM
[6]
  GI50: 25.5 µM
  TGI: > 100 µM
[7]
  GI50: 24.1 µM
  TGI: > 100 µM
[8]
  GI50: 24.1 µM
  TGI: > 100 µM
[9]
  GI50: 62.8 µM
  TGI: > 100 µM
[10]
  GI50: 0.368 µM
  TGI: 61.1 µM
[11]
  GI50: 1.16 µM
  TGI: > 100 µM
[12]
  GI50: 24.2 µM
  TGI: > 100 µM
[13]
  GI50: 1.47 µM
  TGI: > 100 µM
[14]
  GI50: 10.7 µM
  TGI: > 100 µM
[15]
  GI50: 19.7 µM
  TGI: 68.4 µM
[16]
  GI50: 2.72 µM
  TGI: 36.2 µM
[17]
  GI50: > 100 µM
  TGI: > 100 µM
[18]
  GI50: 6.66 µM
  TGI: > 100 µM
[19]
  GI50: 4.48 µM
  TGI: > 100 µM
[20]
  GI50: 0.975 µM
  TGI: 26.7 µM
[21]
  GI50: 24.5 µM
  TGI: > 100 µM
[22]
  GI50: 19.3 µM
  TGI: > 100 µM
[23]
  GI50: 31.9 µM
  TGI: > 100 µM
[24]
  GI50: 0.401 µM
  TGI: 26.1 µM
[25]
  GI50: 1.03 µM
  TGI: 63.8 µM
[26]
  GI50: 3.84 µM
  TGI: 30 µM
[27]
  GI50: 23 µM
  TGI: > 100 µM
[28]
  GI50: 14.2 µM
  TGI: > 100 µM
[29]
  GI50: 4.49 µM
  TGI: > 100 µM
[30]
  GI50: 1.27 µM
  TGI: > 100 µM
[31]
  GI50: 12.3 µM
  TGI: > 100 µM
[32]
  GI50: 19.9 µM
  TGI: > 100 µM
[33]
  GI50: 4.46 µM
  TGI: 24.7 µM
[34]
  GI50: 0.117 µM
  TGI: > 100 µM
[35]
  GI50: 0.762 µM
  TGI: 73.9 µM
[36]
  GI50: 38.2 µM
  TGI: > 100 µM
[37]
  GI50: 16.4 µM
  TGI: > 100 µM
[38]
  GI50: 4.6 µM
  TGI: > 100 µM
[39]
  GI50: 17.9 µM
  TGI: > 100 µM
[40]
  GI50: 89.4 µM
  TGI: > 100 µM
[41]
  GI50: 26.9 µM
  TGI: > 100 µM
[42]
  GI50: 48.7 µM
  TGI: > 100 µM
[43]
  GI50: 54.7 µM
  TGI: > 100 µM
[44]
  GI50: 48.8 µM
  TGI: > 100 µM
[45]
  GI50: 0.595 µM
  TGI: > 100 µM
[46]
  GI50: 65.3 µM
  TGI: > 100 µM
[47]
  GI50: > 100 µM
  TGI: > 100 µM
[48]
  GI50: 71.4 µM
  TGI: > 100 µM
[49]
  GI50: 18.5 µM
  TGI: > 100 µM
[50]
  GI50: 3.72 µM
  TGI: > 100 µM
[51]
  GI50: 35.9 µM
  TGI: > 100 µM
[52]
  GI50: 0.414 µM
  TGI: 26.9 µM
[53]
  GI50: 5.78 µM
  TGI: 78.3 µM
[54]
  GI50: 24.8 µM
  TGI: > 100 µM
[55]
  GI50: 66.3 µM
  TGI: > 100 µM
[56]
  GI50: 30.5 µM
  TGI: > 100 µM
[57]
  GI50: > 100 µM
  TGI: > 100 µM
